Results: patent US6451819B2, “Heterocyclic compounds useful as NMDA receptor selective subtype blockers” (Hoffmann-La Roche Inc., priority 2000, dated 2002)
Read-outs that look alike come from different tables or passages of the source.

Legend:
[1] = target: T1, NMDA receptor (3H-Ro 25-6981 binding site), rat brain membranes (Rattus norvegicus, UniProt P35439+Q00960); assay: 3H-Ro 25-6981 binding
T1 construct: Membranes were prepared by homogenization of the whole brain minus cerebellum and medulla oblongata; from tissue; host or cells: rat whole brain minus cerebellum and medulla oblongata, membrane preparation
Method: 3H-Ro 25-6981 binding (Ro 25-6981 is [R—(R*,S*)]-a-(4-hydroxy-phenyl)-b-methyl-4-(phenyl-methyl)-1-piperidine propanol)
Male Füllinsdorf albino rats weighing between 150-200 g were used. Membranes were prepared by homogenization of the whole brain minus cerebellum and medulla oblongata with a Polytron (10,000 rpm, 30 seconds), in 25 volumes of a cold Tris-HCl 50 mM, EDTA 10 mM, pH 7.1 buffer. The homogenate was centrifuged at 48,000 g for 10 minutes at 4° C. The pellet was resuspended using the Polytron in the same volume of buffer and the homogenate was incubated at 37° C. for 10 minutes. After centrifugation the pellet was homogenized in the same buffer and frozen at −80° C. for at least 16 hours but not more than 10 days. For the binding assay the homogenate was thawed at 37° C., centrifuged and the pellet was washed three times as above in a Tris-HCl 5 mM, pH 7.4 cold buffer. The final pellet was resuspended in the same buffer and used at a final concentration of […].
3H-Ro 25-6981 binding experiments were performed using a Tris-HCl 50 mM, pH 7.4 buffer. For displacement experiments 5 nM of 3H-Ro 25-6981 were used and non-specific binding was measured using 10 mM of tetrahydroisoquinoline and usually it accounts for 10% of the total. The incubation time was 2 hours at 4° C. and the assay was stopped by filtration on Whatman GF/B glass fiber filters (Unifilter-96, Packard, Zürich, Switzerland). The filters were washed 5 times with cold buffer. The radioactivity on the filter was counted on a Packard Top-count microplate scintillation counter after addition of […] of microscint 40 (Canberra Packard S.A., Zürich, Switzerland).
The effects of compounds were measured using a minimum of 8 concentrations and repeated at least once. The pooled normalized values were analyzed using a non-linear regression calculation program which provide IC50 with their relative upper and lower 95% confidence limits (RS1, BBN, USA).

[2] = displacement of 5 nM 3H-Ro 25-6981, rat whole brain minus cerebellum and medulla oblongata membranes, 2 hours at 4° C., read-out: IC50

T1 sequence (Q00960 27-1482, other chains not shown): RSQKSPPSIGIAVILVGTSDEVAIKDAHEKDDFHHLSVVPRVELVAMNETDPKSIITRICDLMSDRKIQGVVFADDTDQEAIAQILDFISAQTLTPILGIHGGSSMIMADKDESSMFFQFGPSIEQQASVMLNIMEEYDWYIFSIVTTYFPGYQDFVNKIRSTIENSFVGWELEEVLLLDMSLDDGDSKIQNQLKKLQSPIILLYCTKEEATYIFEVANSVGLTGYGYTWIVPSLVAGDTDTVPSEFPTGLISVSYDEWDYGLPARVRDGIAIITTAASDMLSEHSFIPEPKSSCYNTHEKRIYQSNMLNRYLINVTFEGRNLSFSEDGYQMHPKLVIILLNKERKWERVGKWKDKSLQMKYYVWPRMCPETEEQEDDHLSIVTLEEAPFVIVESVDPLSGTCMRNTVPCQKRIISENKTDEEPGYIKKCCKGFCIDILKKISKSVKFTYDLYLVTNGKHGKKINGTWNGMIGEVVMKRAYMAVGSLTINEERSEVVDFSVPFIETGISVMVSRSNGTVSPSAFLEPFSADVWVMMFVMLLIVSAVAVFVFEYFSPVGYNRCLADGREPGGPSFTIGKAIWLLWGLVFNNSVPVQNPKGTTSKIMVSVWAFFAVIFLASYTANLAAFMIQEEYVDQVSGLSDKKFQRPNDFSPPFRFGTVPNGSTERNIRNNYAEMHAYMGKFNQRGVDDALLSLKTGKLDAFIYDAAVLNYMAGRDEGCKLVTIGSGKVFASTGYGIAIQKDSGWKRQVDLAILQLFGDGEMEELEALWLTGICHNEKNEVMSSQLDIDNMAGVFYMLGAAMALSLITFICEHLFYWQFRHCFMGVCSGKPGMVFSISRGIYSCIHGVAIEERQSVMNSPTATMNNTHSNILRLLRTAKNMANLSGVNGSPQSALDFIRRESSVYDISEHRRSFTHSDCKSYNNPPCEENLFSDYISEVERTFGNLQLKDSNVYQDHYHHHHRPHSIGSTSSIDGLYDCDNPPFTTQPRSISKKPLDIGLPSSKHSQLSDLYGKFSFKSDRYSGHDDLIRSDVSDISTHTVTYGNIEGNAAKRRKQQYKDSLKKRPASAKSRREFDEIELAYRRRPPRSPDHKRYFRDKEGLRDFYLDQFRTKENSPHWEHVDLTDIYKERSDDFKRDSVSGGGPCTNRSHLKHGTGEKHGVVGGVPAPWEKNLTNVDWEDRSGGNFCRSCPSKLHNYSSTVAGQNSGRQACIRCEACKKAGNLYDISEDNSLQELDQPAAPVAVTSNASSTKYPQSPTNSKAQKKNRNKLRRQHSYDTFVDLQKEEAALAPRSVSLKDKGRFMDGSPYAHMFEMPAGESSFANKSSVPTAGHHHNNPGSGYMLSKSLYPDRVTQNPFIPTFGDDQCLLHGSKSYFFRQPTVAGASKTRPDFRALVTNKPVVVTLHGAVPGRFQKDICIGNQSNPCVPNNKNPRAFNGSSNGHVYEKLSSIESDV

## Oc1ccc(S[C@@H]2CCN(CCCCc3ccccc3)C2)cc1 [Example 3, (R)-4-[1-(4-Phenyl-butyl)-pyrrolidin-3-yl-sulfanyl]-phenol]
[1]; [2]
  IC50: 0.02 µM

## Oc1ccc(S[C@H]2CCN(CCCCc3ccccc3)C2)cc1 [Example 2, (S)-4-[1-(4-Phenyl-butyl)-pyrrolidin-3-yl-sulfanyl]-phenol]
[1]; [2]
  IC50: 0.009 µM

## O=S(=O)(c1ccc(O)cc1)[C@H]1CCN(CC(O)C2Cc3ccccc3C2)C1 (mixture of isomers) [Example 43, (2R,3S) and (2S,3S)-4-[1-(2-Hydroxy-2-indan-2-yl-ethyl)-pyrrolidine-3-sulfonyl]-phenol]
[1]; [2]
  IC50: 0.031 µM

## Oc1ccc(S[C@H]2CCN(CC(F)CCc3ccccc3)C2)cc1 (mixture of isomers) [Example 68, (2RS,3S)-4-[1-(2-Fluoro-4-phenyl-butyl)-pyrrolidin-3-ylsulfanyl]-phenol]
[1]
  IC50: 0.077 µM

## O=S(=O)(c1ccc(O)cc1)[C@@H]1CN(CCCCc2ccccc2)C[C@H]1O (racemic) [Example 16, (3RS,4RS)-4-(4-Hydroxy-benzenesulfonyl)-1-(4-phenyl-butyl)-pyrrolidin-3-ol]
[1]; [2]
  IC50: 0.08 µM

## [O-][S@@+](c1ccc(O)cc1)[C@H]1CCN(C[C@@H](F)CCc2ccccc2)C1 [Example 62, (2S,3S,S-oxide R)-4-[1-(2-Fluoro-4-phenyl-butyl)-pyrrolidine-3-sulfinyl]-phenol]
[1]; [2]
  IC50: 0.06 µM

## O=S(=O)(c1ccc(O)cc1)[C@H]1CCN(CC(F)CCc2ccccc2)C1 (mixture of isomers) [Example 35, (2R,3S) and (2S,3S)-4-[1-(2-Fluoro-4-phenyl-butyl)-pyrrolidine-3-sulfonyl]-phenol]
[1]
  IC50: 0.029 µM

## O=S(=O)(c1ccc(O)cc1)C1CCN([C@H]2CC[C@@H](c3ccccc3)CC2)C1 (relative stereo) [Example 6, (3RS,cis)-4-[1-(4-Phenyl-cyclohexyl)-pyrrolidine-3-sulfonyl]-phenol]
[1]; [2]
  IC50: 0.059 µM

## Cl.O=S(=O)(c1ccc(O)cc1)C1CCN(CCCCc2ccccc2)C1 (racemic)
other
  melting point: 121 to 124 °C

## O=S(=O)(c1ccc(O)cc1)C1CCN(C2CC(Cc3ccccc3)C2)C1 (stereo not drawn) [Example 4, (3RS,cis) and (3RS,trans)-4-[1-(3-Benzyl-cyclobutyl)-pyrrolidine-3-sulfonyl]-phenol]
[1]; [2]
  IC50: 0.04 µM
